Test results: ChEMBL document CHEMBL4417622, “New steroid inhibitors of pgp for use for inhibiting multidrug resistance” (2012)
The source made the active and inactive calls. The calls are words filed in the database; no cut-off is given here.

Legend:
[1] = molecular target: T1, Nuclear receptor subfamily 1 group I member 2 (Homo sapiens, UniProt O75469); test: Activation of human PXR at 10 nM to 10 uM; format: ADME; settings: 0.01 µM
T1 sequence (O75469 whole entry): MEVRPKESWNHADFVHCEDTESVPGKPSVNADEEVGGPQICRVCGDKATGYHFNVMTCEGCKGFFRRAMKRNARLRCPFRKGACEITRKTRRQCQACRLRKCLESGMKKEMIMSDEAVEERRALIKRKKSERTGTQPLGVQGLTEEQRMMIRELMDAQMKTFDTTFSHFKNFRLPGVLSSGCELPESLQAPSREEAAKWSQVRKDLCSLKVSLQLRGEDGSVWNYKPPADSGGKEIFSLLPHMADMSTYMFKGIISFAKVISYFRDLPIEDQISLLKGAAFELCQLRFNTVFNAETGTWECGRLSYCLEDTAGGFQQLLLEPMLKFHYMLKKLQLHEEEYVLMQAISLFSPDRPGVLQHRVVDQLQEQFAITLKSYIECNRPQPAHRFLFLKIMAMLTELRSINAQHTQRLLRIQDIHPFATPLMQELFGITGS

Progesterone receptor = molecular target: T2, Progesterone receptor (Homo sapiens, UniProt P06401); test: Displacement of [3H]ORG2058 from progesterone receptor in human breast carcinoma cytosol at 0.5 to 3.5 uM by liquid scintillation counting based DCC competitive binding assay
T2 sequence (P06401 whole entry): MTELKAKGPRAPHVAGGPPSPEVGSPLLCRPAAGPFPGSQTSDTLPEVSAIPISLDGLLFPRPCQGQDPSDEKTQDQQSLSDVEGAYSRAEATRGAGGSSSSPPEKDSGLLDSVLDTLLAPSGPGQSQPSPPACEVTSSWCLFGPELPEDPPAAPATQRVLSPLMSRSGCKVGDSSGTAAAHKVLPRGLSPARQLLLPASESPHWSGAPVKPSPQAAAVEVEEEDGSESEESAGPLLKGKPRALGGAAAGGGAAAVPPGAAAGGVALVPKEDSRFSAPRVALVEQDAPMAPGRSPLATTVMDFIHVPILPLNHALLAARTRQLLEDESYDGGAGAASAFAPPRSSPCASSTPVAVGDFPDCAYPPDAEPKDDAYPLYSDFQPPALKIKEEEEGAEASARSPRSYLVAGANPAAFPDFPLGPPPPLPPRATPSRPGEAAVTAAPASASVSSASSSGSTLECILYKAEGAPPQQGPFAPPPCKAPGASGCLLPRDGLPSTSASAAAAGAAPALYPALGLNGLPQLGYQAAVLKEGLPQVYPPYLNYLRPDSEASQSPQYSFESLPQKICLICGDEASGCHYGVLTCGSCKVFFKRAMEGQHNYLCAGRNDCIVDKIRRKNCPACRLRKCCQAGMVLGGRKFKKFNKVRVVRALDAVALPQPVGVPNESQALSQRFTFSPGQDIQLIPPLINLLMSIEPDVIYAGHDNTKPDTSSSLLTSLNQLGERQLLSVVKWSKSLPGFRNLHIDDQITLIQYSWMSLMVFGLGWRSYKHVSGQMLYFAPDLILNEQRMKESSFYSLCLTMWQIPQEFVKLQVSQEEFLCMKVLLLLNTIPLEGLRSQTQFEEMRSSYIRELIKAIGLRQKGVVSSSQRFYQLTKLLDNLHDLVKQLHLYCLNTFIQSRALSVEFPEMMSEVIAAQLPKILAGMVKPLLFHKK

NCI-H295R [2] = test: Potentiation of doxorubicin-induced antitumor activity against human NCI-H295R cells xenografted in SCID mouse assessed as reduction in tumor volume at 10 mg/kg co-treated with 1.5 mg/kg doxorubicin after 40 days post dose; format: functional, organism-based
K562/R7 [3] = test: Potentiation of doxorubicin-induced antitumor activity against human K562/R7 cells xenografted in SCID mouse assessed as reduction in tumor volume at 10 mg/kg co-treated with 1.5 mg/kg doxorubicin measured up to 80 days; format: functional, organism-based
P-gp (ABCB1) = P-gp (ABCB1) (Homo sapiens, UniProt P08183); test: Inhibition of P-gp in human K562/R7 cells assessed as daunorubicin accumulation at 10 uM incubated fro 1 hr by flow cytometry relative to cyclosporine A; format: cell-based; settings: probe daunorubicin, read-out: Activity
NCI-H295R [4] = test: Potentiation of doxorubicin-induced antitumor activity against human NCI-H295R cells xenografted in SCID mouse assessed as reduction in tumor volume at 10 mg/kg co-treated with 1.5 mg/kg doxorubicin measured up to 80 days; format: functional, organism-based
K562/R7 [5] = test: Potentiation of doxorubicin-induced antitumor activity against human K562/R7 cells xenografted in SCID mouse assessed as reduction in tumor volume at 10 mg/kg co-treated with 1.5 mg/kg doxorubicin after 40 days post dose; format: functional, organism-based

Sequence of P-gp (ABCB1) (P08183 whole entry): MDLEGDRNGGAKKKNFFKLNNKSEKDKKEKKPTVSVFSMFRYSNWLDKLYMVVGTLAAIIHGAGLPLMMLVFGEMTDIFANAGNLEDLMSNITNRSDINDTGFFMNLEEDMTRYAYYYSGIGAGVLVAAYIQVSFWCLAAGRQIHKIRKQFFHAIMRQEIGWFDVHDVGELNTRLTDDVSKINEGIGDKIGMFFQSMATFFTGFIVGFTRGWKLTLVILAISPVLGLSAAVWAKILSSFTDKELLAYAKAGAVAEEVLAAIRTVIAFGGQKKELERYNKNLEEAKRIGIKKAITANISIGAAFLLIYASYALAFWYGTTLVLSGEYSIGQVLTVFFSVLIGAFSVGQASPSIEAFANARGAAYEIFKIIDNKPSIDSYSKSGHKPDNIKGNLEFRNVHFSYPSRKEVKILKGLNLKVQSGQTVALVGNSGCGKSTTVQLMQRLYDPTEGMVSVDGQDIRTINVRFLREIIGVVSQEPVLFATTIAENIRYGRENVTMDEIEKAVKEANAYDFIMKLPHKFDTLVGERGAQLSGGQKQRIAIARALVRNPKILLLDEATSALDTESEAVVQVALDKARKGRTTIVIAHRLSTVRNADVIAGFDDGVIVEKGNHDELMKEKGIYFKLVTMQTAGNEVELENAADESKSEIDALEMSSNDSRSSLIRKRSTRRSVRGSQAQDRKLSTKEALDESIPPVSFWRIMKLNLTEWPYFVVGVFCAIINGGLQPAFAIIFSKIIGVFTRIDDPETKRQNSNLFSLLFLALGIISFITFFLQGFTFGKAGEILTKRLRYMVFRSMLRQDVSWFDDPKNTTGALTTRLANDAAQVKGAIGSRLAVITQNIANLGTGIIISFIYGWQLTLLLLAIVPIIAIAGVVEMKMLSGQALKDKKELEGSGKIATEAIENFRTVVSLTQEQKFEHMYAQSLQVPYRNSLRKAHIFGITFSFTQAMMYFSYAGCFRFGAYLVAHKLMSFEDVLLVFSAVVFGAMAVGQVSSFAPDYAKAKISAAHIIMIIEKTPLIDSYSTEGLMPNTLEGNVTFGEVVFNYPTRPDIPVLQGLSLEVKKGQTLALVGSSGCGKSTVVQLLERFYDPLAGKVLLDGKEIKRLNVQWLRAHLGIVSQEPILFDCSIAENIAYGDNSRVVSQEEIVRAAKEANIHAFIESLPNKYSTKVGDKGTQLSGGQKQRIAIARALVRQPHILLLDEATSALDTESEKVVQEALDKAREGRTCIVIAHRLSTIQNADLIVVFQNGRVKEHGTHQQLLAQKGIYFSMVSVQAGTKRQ

Structure (SMILES)	Activity [1]	Activity (Progesterone receptor)	further results
CC(=O)[C@@]1(O[C@@H]2CCCCO2)CC[C@H]2[C@@H]3CC[C@@H]4CC(=O)CC[C@]4(C)[C@H]3[C@H](O[C@@H]3CCCCO3)C[C@@]21C	Not Active	–	–
CC(=O)[C@H]1CC[C@H]2[C@H]3[C@H]([C@H](OC(=O)c4ccccc4)C[C@]12C)[C@@]1(C)CCC(=O)C[C@H]1C[C@H]3OC(=O)c1ccccc1	Not Active	Not Active	–
CC(=O)[C@H]1CC[C@H]2[C@H]3[C@H]([C@H](O[C@@H]4CCCCO4)C[C@]12C)[C@@]1(C)CCC(=O)C[C@H]1C[C@H]3OC(=O)c1ccccc1	Not Active	Not Active	Activity (NCI-H295R [2]): Active; Activity (K562/R7 [3]): Active; inhibition at 1 h, 10 µM (P-gp (ABCB1)): 119%; Activity (NCI-H295R [4]): Active; Activity (K562/R7 [5]): Active
CC(=O)[C@H]1CC[C@H]2[C@H]3[C@H]([C@H](OC(=O)c4ccccc4)C[C@]12C)[C@@]1(C)CCC(=O)C[C@H]1C[C@@H]3OC(=O)c1ccccc1	–	Not Active	–
CC(=O)[C@@]1(O[C@@H]2CCCCO2)CC[C@H]2[C@@H]3CC[C@@H]4CC(=O)CC[C@]4(C)[C@H]3[C@H](O[C@H]3CCCCO3)C[C@@]21C	Not Active	–	–
CC(=O)[C@H]1CC[C@H]2[C@H]3[C@H]([C@H](O[C@@H]4CCCCO4)C[C@]12C)[C@@]1(C)CCC(=O)C[C@H]1C[C@@H]3OC(=O)c1ccccc1	Not Active	–	–
CC(=O)[C@@]1(O[C@H]2CCCCO2)CC[C@H]2[C@@H]3CC[C@@H]4CC(=O)CC[C@]4(C)[C@H]3[C@H](O[C@H]3CCCCO3)C[C@@]21C	Not Active	Not Active	–
COC(=O)CC[C@@H](C)[C@H]1CC[C@H]2[C@@H]3[C@H](OC(=O)c4ccccc4)CC4CC(=O)CC[C@]4(C)[C@H]3C[C@H](O[C@@H]3CCCCO3)[C@]12C (single isomer, unassigned)	–	–	inhibition at 1 h, 10 µM (P-gp (ABCB1)): 79.8%
